Assay results as given in article PMC5882164, “A novel calcimimetic agent, evocalcet (MT-4580/KHK7580), suppresses the parathyroid cell function with little effect on the gastrointestinal tract or CYP isozymes in vivo and in vitro” (PLoS ONE, 2018).
Several values for one entry are separate records, joined by “and”; a condition that tells them apart may be missing. Equal entries are not always repeated.

How the values were obtained:
serum calcium = experiment: Normal rat study: serum calcium level after oral administration; format: in vivo; set-up: Serum Ca: unit not given here; settings: normal rats
Description: (§1) After acclimatization, rats were divided into nine groups (n = 10/group) matched in terms of body weight, and their serum PTH and calcium levels. Vehicle, 0.5% (w/v) methyl cellulose (Wako Pure Chemical Industries, Ltd.) solution orally administered to vehicle treatment group rats. Evocalcet (0.03, 0.1, 0.3, or 1 mg/kg), or cinacalcet (1, 3, 10, or 30 mg/kg) were suspended in the vehicle solution and orally administered to each drug treatment group. Blood samples were collected from the tail vein before and at 0.5, 2, 4, 6, 8, and 24 h after the oral administration.
(§2) The serum PTH level was measured using a Rat Intact PTH ELISA kit (Immutopics, Inc., San Clemente, CA). The serum calcium, phosphate and BUN levels were measured using an auto analyzer (Hitachi High-Technologies Corporation., Tokyo, Japan) or the following test kits: the Calcium E-test WAKO, the Phospha C-test WAKO, or the Blood Urea nitrogen B-test WAKO (Wako Pure Chemical Industries, Ltd., Osaka, Japan).

serum PTH [1] = experiment: Serum PTH reduction in common marmosets; format: in vivo, common marmoset; set-up: Serum PTH levels: unit not given here
Description: The study of effect of evocalcet on emesis in common marmoset was performed by referencing a previously reported method. The marmosets (n = 24) used for this study were housed in cages (460 × 600 × 655 mm) with environmental enrichments (wooden perches, swing, and balls) and acclimated for at least 4 weeks. The marmosets were fasted from evening on the day before administration. […] The serum PTH level was measured using a Porcine Intact PTH ELISA kit (Immutopics, Inc., San Clemente, CA, USA). To evaluate the emetic effects in marmosets, evocalcet (50 or 150 μg/kg) or cinacalcet (1500 or 5000 μg/kg) was orally administered (n = 6/drug, dose down titration, n = 12 in total). The observation of emesis was conducted until 4 h after the administration.

serum PTH [2] = experiment: Normal rat study: serum PTH level after oral administration; format: in vivo; settings: normal rats
Description: as §1, §2

gastric emptying = experiment: Evaluation of gastric emptying in rats (phenol red); format: in vivo, rat
Description: The study of gastric emptying in rats was performed by referencing a previously reported method. […] The rats were divided into eight body-weight-matched groups (n = 8/group). […] Ten minutes later, 0.05 w/v% phenol red, a non-absorbable marker solution (1.5 mL/body), was orally administered. Thirty minutes after the administration of phenol red, the rats were euthanized by cervical dislocation, and the gastric body clamped at the cardiac and pyloric part of the stomach was obtained. The stomach was homogenized by adding 0.1 M NaOH and centrifugated. The supernatant was mixed with 20 w/v% trichloroacetic acid. After centrifugation, the supernatant was mixed with the same volume of 0.5 mol/L NaOH, and the absorbance was measured at 560 nm. The gastric emptying rate was calculated by the following formula: […]=[1-(opticaldensity[[…])]×100

[3] = evocalcet 0.03 mg/kg oral, 0 h (before administration), group mean, n = 10
[4] = evocalcet 0.03 mg/kg oral, 0 h (before administration), individual rats
[5] = evocalcet 0.03 mg/kg oral, 0.5 h, group mean, n = 10
[6] = evocalcet 0.03 mg/kg oral, 0.5 h, individual rats
[7] = evocalcet 0.03 mg/kg oral, 2 h, group mean, n = 10
[8] = evocalcet 0.03 mg/kg oral, 2 h, individual rats
[9] = evocalcet 0.03 mg/kg oral, 4 h, group mean, n = 10
[10] = evocalcet 0.03 mg/kg oral, 4 h, individual rats
[11] = evocalcet 0.03 mg/kg oral, 6 h, group mean, n = 10
[12] = evocalcet 0.03 mg/kg oral, 6 h, individual rats
[13] = evocalcet 0.03 mg/kg oral, 8 h, group mean, n = 10
[14] = evocalcet 0.03 mg/kg oral, 8 h, individual rats
[15] = evocalcet 0.03 mg/kg oral, 24 h, group mean, n = 10
[16] = evocalcet 0.03 mg/kg oral, 24 h, individual rats
[17] = evocalcet 0.1 mg/kg oral, 0 h (before administration), individual rats
[18] = evocalcet 0.1 mg/kg oral, 0.5 h, individual rats
[19] = evocalcet 0.1 mg/kg oral, 2 h, individual rats
[20] = evocalcet 0.1 mg/kg oral, 4 h, individual rats
[21] = evocalcet 0.1 mg/kg oral, 6 h, individual rats
[22] = evocalcet 0.1 mg/kg oral, 8 h, individual rats
[23] = evocalcet 0.1 mg/kg oral, 24 h, individual rats
[24] = single oral dose, vs vehicle group

C[C@@H](N[C@H]1CCN(c2ccc(CC(=O)O)cc2)C1)c1cccc2ccccc12 [evocalcet]
Serum Ca (serum calcium; [3]): 10.9 | Serum Ca (serum calcium; [4]): 10.2 and 11.0 and 11.2 and 10.8 | Serum Ca (serum calcium; [5]): 11.0 | Serum Ca (serum calcium; [6]): 10.2 and 10.6 and 11.8 and 10.4 and 11.2 and 11.4 | Serum Ca (serum calcium; [7]): 10.8 | Serum Ca (serum calcium; [8]): 10.0 and 11.2 and 10.6 and 10.8 and 11.0 and 10.4 | Serum Ca (serum calcium; [9]): 10.4 | Serum Ca (serum calcium; [10]): 10.2 and 10.8 and 10.0 and 10.6 and 10.4 | Serum Ca (serum calcium; [11]): 10.3 | Serum Ca (serum calcium; [12]): 10.0 and 10.4 and 10.2 and 10.6 | Serum Ca (serum calcium; [13]): 10.5 | Serum Ca (serum calcium; [14]): 9.6 and 10.0 and 8.6 and 10.6 and 11.4 and 10.8 and 12.6 | Serum Ca (serum calcium; [15]): 10.5 | Serum Ca (serum calcium; [16]): 10.2 and 10.4 and 10.6 and 10.8 | Serum Ca (serum calcium; evocalcet 0.1 mg/kg oral, 0 h (before administration), group mean, n = 10): 10.9 | Serum Ca (serum calcium; [17]): 11.0 and 10.8 | Serum Ca (serum calcium; evocalcet 0.1 mg/kg oral, 0.5 h, group mean, n = 10): 10.7 | Serum Ca (serum calcium; [18]): 10.6 and 10.0 | Serum Ca (serum calcium; evocalcet 0.1 mg/kg oral, 2 h, group mean, n = 10): 10.1 | Serum Ca (serum calcium; [19]): 10.2 and 10.0 and 9.8 | Serum Ca (serum calcium; evocalcet 0.1 mg/kg oral, 4 h, group mean, n = 10): 9.8 | Serum Ca (serum calcium; [20]): 9.8 and 10.0 and 10.2 and 9.6 | Serum Ca (serum calcium; evocalcet 0.1 mg/kg oral, 6 h, group mean, n = 10): 9.9 | Serum Ca (serum calcium; [21]): 10.0 and 10.4 and 9.8 | Serum Ca (serum calcium; evocalcet 0.1 mg/kg oral, 8 h, group mean, n = 10): 10.6 | Serum Ca (serum calcium; [22]): 10.4 and 10.8 and 10.6 | Serum Ca (serum calcium; evocalcet 0.1 mg/kg oral, 24 h, group mean, n = 10): 11.6 | Serum Ca (serum calcium; [23]): 12.6 and 10.8 and 12.0 | Serum Ca (serum calcium; evocalcet 0.3 mg/kg oral, 0 h (before administration), individual rats): 10.4 and 10.8 and 11.2 | Serum Ca (serum calcium; evocalcet 0.3 mg/kg oral, 0.5 h, individual rats): 9.6 and 9.4 and 10.4 and 10.0 | Serum Ca (serum calcium; evocalcet 0.3 mg/kg oral, 2 h, individual rats): 9.0 and 9.2 and 9.4 and 9.8 | Serum Ca (serum calcium; evocalcet 0.3 mg/kg oral, 4 h, individual rats): 8.8 and 9.6 and 9.4 and 9.8 and 9.2 and 9.0 | Serum Ca (serum calcium; evocalcet 0.3 mg/kg oral, 6 h, individual rats): 8.6 and 9.8 and 9.6 and 9.4 and 9.0 | Serum Ca (serum calcium; evocalcet 0.3 mg/kg oral, 8 h, individual rats): 9.8 and 10.4 and 9.4 and 8.8 | Serum Ca (serum calcium; evocalcet 0.3 mg/kg oral, 24 h, individual rats): 14.8 and 11.4 and 11.0 and 11.2 | Doses that significantly reduced the serum calcium level (serum calcium; [24]): ≥ 0.1 mg/kg | Serum PTH levels (serum PTH [1]; 5 μg/kg, 1 h, individual animals): 19.1 and 25.6 and 158.9 | Serum PTH levels (serum PTH [1]; 5 μg/kg, 1 h, mean): 67.9 | Serum PTH levels (serum PTH [1]; 5 μg/kg, 4 h, individual animals): 52.9 and 115.9 and 433.3 | Serum PTH levels (serum PTH [1]; 5 μg/kg, 4 h, mean): 200.7 | Serum PTH levels (serum PTH [1]; 5 μg/kg, before administration, individual animals): 92.1 and 97.8 and 541.4 | Serum PTH levels (serum PTH [1]; 5 μg/kg, before administration, mean): 243.8 | Serum PTH levels (serum PTH [1]; 150 μg/kg, 1 h, individual animals): 36.4 and 52.9 and 258.2 | Serum PTH levels (serum PTH [1]; 150 μg/kg, 1 h, mean): 115.9 | Serum PTH levels (serum PTH [1]; 150 μg/kg, 4 h, individual animals): 81.0 and 188.4 and 311.9 | Serum PTH levels (serum PTH [1]; 150 μg/kg, 4 h, mean): 193.8 | Serum PTH levels (serum PTH [1]; 150 μg/kg, before administration, individual animals): 57.2 and 203.0 and 236.6 | Serum PTH levels (serum PTH [1]; 150 μg/kg, before administration, mean): 165.6 | Minimum effective dose on PTH reduction (serum PTH [1]; oral): 0.005 mg/kg | Serum PTH (serum PTH [2]; [3]): 117.288 | Serum PTH (serum PTH [2]; [4]): 129.159 and 98.086 and 98.874 and 128.658 and 81.261 and 126.366 and 104.386 and 122.715 and 112.906 and 170.470 | Serum PTH (serum PTH [2]; [5]): 51.998 | Serum PTH (serum PTH [2]; [6]): 33.535 and 36.787 and 59.553 and 50.196 and 64.403 and 70.451 and 74.902 and 34.333 and 15.500 and 80.322 | Serum PTH (serum PTH [2]; [7]): 103.394 | Serum PTH (serum PTH [2]; [8]): 15.500 and 69.801 and 132.927 and 117.200 and 119.941 and 109.480 and 83.508 and 88.630 and 158.250 and 138.699 | Serum PTH (serum PTH [2]; [9]): 147.651 | Serum PTH (serum PTH [2]; [10]): 111.671 and 66.789 and 176.435 and 179.922 and 200.545 and 117.161 and 137.784 and 93.718 and 165.530 and 226.956 | Serum PTH (serum PTH [2]; [11]): 186.457 | Serum PTH (serum PTH [2]; [12]): 167.854 and 143.511 and 260.179 and 212.225 and 211.330 and 175.263 and 176.565 and 131.380 and 164.597 and 221.669 | Serum PTH (serum PTH [2]; [13]): 183.556 | Serum PTH (serum PTH [2]; [14]): 144.862 and 141.432 and 139.974 and 226.246 and 213.297 and 177.022 and 177.107 and 148.207 and 214.155 and 253.260 | Serum PTH (serum PTH [2]; [15]): 111.913 | Serum PTH (serum PTH [2]; [16]): 85.800 and 128.079 and 93.520 and 115.512 and 45.316 and 85.890 and 75.657 and 215.959 and 131.939 and 141.454 | Serum PTH (serum PTH [2]; [17]): 112.047 and 96.726 and 90.998 and 167.821 | Serum PTH (serum PTH [2]; [18]): 33.820 and 15.500 | Serum PTH (serum PTH [2]; [19]): 42.097 and 52.053 and 15.500 | Serum PTH (serum PTH [2]; [20]): 266.348 and 163.156 and 79.252 and 192.014 | Serum PTH (serum PTH [2]; [21]): 153.036 and 149.943 and 133.171 and 173.553 | Serum PTH (serum PTH [2]; [22]): 303.000 and 168.617 and 221.701 | Serum PTH (serum PTH [2]; [23]): 120.270 and 80.325 and 122.155 | Strength of pharmacological effect relative to cinacalcet at the same dosage (serum PTH [2]; oral): approximately 30 times | Doses that significantly reduced the serum PTH level (serum PTH [2]; [24]): ≥ 0.03 mg/kg | Gastric Emptying (gastric emptying; 0.3 mg/kg, group mean): 67.83% | Gastric Emptying (gastric emptying; 0.3 mg/kg, individual rats): 75.29% and 74.04% and 68.43% and 31.88% and 68.64% and 79.44% and 65.73% and 79.23% | Gastric Emptying (gastric emptying; 1 mg/kg, group mean): 65.89% | Gastric Emptying (gastric emptying; 1 mg/kg, individual rats): 38.94% and 71.96% and 52.65% and 74.45% and 73.42% and 65.94% and 77.15% and 72.59% | Gastric Emptying (gastric emptying; 3 mg/kg, group mean): 61.58% | Gastric Emptying (gastric emptying; 3 mg/kg, individual rats): 69.47% and 67.19% and 53.48% and 63.03% and 78.82% and 61.16% and 64.49% and 34.99% | Dose (3 mg/kg) without delay of gastric emptying relative to the dose required for a significant PTH reduction (gastric emptying; oral): 100 fold | Effect on gastric emptying (gastric emptying; oral 0.3, 1 and 3 mg/kg (any dose)): no significant effects
